Laboratory results: a melting point compilation (Tetko et al.; mined from patent text by program, amines drawn as free bases though some values may be those of a salt)

First: C#Cc1cn(-c2c(Cl)cc(OC(F)(F)F)cc2Cl)nc1C#N
Second: N#Cc1cc(C(=O)O)cc(O)c1O
The melting point of the first is lower: 95.2 to 96 °C for the first, 269 to 271 °C for the second.

First: O=C(c1ccccc1)c1c(-c2ccccc2)sc2cc(O)ccc12
Second: CC(Nc1cc(Br)ccc1OCc1ccccc1)c1ccc(C(=O)O)cc1 (centres undefined)
The melting point of the first is higher: 221 to 222 °C for the first, 186 to 187 °C for the second.

First: CS(=O)(=O)c1ccc(-c2cc(C(F)(F)F)nn2C2CCCCC2)cc1F
Second: Cc1c(NC(=O)c2ccc(-c3ccccc3F)cc2F)ccc2cc(CN3CCCC3)cnc12
The melting point of the first is higher: 228 to 229 °C for the first, 159 to 160 °C for the second.

First: CNC(=O)c1cc(-c2ccc(SC)cc2)nn(CC(C)C)c1=O
Second: CC(=O)N1CCN(C(=O)c2nc(-c3ccccc3)c(-c3ccc(=O)n(C(C)C)n3)s2)CC1
The melting point of the first is higher: 130 to 131 °C for the first, 78 to 82 °C for the second.

First: CN(Cc1ccccc1CC(=O)O)C(=O)OC(C)(C)C
Second: CC(C)(C)OC(=O)N[C@H](Cc1cn(Cc2ccccc2)c2ccccc12)C(=O)O
The melting point of the first is lower: 96 to 98 °C for the first, 164 to 165 °C for the second.

First: Nc1ccc2c(c1)NC(=O)C2
Second: CC1(C)COc2cc3c(cc21)C1(CO3)C(=O)Nc2ccccc21 (centres undefined)
The melting point of the first is higher: 194 °C for the first, 95 to 100 °C for the second.

First: Cc1ccc2c(c1)N=C(N1CCN(C)CC1)c1cc(C)sc1O2
Second: CCN(C(=O)N1CCN(c2ccccc2OC)CC1)c1cc(C)c(C)nc1OC
The melting point of the first is higher: 146 to 148 °C for the first, 112 to 113 °C for the second.

Compared with `CC(C)N1Cc2ccc(F)cc2N(CCN2CC=C(c3c[nH]c4cc(F)ccc34)CC2)S1(=O)=O`, `Cc1ccc(S(=O)(=O)OCCN2Cc3ccccc3C2=O)cc1` is lower in melting point: 101 to 103 °C for the first, 75 °C for the second.

First: CC(C)(C)c1ccc(C#N)c(NC(=O)Nc2cccnc2)c1
Second: CC(=NOCCCOc1ccc(CC(=O)O)cc1)c1ccc(C(C)(C)C)cc1
The melting point of the first is higher: 164 to 166 °C for the first, 98.7 to 99.7 °C for the second.

Compared with `CNC(=O)CC1N=C(C2CCCCC2)c2c(sc(C)c2C)-n2c(C)nnc21` (centres undefined), `CCOC(=O)C1=C(C)NC(c2csc(C)n2)=NC1c1cccc(O)c1` (centres undefined) is lower in melting point: 228 to 231 °C for the first, 175 to 178 °C for the second.

First: CCOC(=O)[C@H](C)Nc1c(C)cc(C)cc1C
Second: Cc1cc(O)cc(O)c1C(=O)NNC(=O)C(O)c1ccccc1 (centres undefined)
The melting point of the first is lower: 81 to 83 °C for the first, 188 to 189 °C for the second.

Compared with `OCc1cc(OCc2ccccc2)nn1-c1ccccc1`, `COC(=O)c1sc(C(F)(F)F)cc1OCc1ccccc1` is lower in melting point: 87 to 88 °C for the first, 52 to 53.5 °C for the second.

First: Cc1ccccc1N(CCC(=O)O)C(=O)Cl
Second: Cc1cccc(OCC2=NCCN2C(=O)Nc2ccccc2)c1C
The melting point of the first is lower: 112 °C for the first, 150 to 152 °C for the second.

Compared with `CC(C)(C(=O)NCCn1ccc2ncnc(Nc3ccc(Oc4cccc(C(F)(F)F)c4)c(Cl)c3)c21)S(C)(=O)=O`, `CN(c1ccc(OCCCCBr)cc1)S(=O)(=O)c1ccc(C(F)(F)F)cc1` is lower in melting point: 167 to 168 °C for the first, 91 to 92 °C for the second.

Compared with `Nc1c(Cl)cc(C(=O)NC2CCN(CC3CCCO3)CC2)c2c1CCO2` (centres undefined), `C=C1COc2c(N3CCC(NC(=O)OC(C)(C)C)C3)c(F)cc3c(=O)c(C(=O)O)cn1c23` (centres undefined) is higher in melting point: 175 °C for the first, 219 to 220 °C for the second.

First: CN(C)CCSCc1c(CCN(C)C)[nH]c2ccccc12
Second: CCCS(=O)(=O)Nc1c(C(=O)c2ccccc2)[nH]c2cc(Cl)ccc12
The melting point of the first is lower: 52 to 54 °C for the first, 164 to 167 °C for the second.

Compared with `COC(=O)NC12CC=CCC1CSc1ccccc12` (centres undefined), `CN(C(=O)Cc1ccc2oc(=O)[nH]c2c1)[C@H](CN1CC[C@H](O)C1)c1ccccc1` is higher in melting point: 150 to 152 °C for the first, 207 to 208 °C for the second.

First: Cn1c(=N)c(C(=O)NCCO)c(O)c2cc(Cl)ccc21
Second: O=c1[nH]c2ccc(S(=O)(=O)NCCBr)cc2[nH]c1=O
The melting point of the first is lower: 234 to 237 °C for the first, 261 to 266 °C for the second.

First: NC(=S)c1ccc(CC(NC(=O)OCc2ccccc2)C(=O)NCC(=O)NCCC(=O)OCc2ccccc2)cc1 (racemic)
Second: O=C(/C=C/C=C(c1cccc([N+](=O)[O-])c1)c1cccc([N+](=O)[O-])c1)NCCCCc1cccnc1
The melting point of the first is lower: 150 to 151 °C for the first, 158 to 159 °C for the second.

Compared with `Cc1oc(-c2ccccc2)nc1CCOc1ccc(C=CC=C2OC(=O)NC2=O)cn1`, `O=Cc1cccc2nc(-c3ccccc3)oc12` is lower in melting point: 204 to 205 °C for the first, 107 °C for the second.

First: CCOC(=O)c1c(N2CCCCC2)c(C#N)c(=O)n2ccccc12
Second: Cc1csc2[nH]c(=O)nc(-c3ccccc3F)c12
The melting point of the first is lower: 143 to 144 °C for the first, 258 to 261 °C for the second.

Compared with `Cc1cc(-c2ccc(-c3ccco3)cc2)n(-c2ccc(S(C)(=O)=O)cc2)c1`, `Cc1nc(C(F)F)ccc1C(=O)C1=C(NS(=O)(=O)c2ccccc2)C(C)(C)C(=O)C(C)(C)C1=O` is lower in melting point: 193 to 194 °C for the first, 130 °C for the second.

`COc1ccc(-c2cnc3nccn3c2)cc1OC1CC2CCC1C2` (centres undefined) and `Clc1ncc(-c2ccccc2)cn1` cannot be ordered by melting point: 130 °C for the first, 130 to 132 °C for the second.

First: Cc1c(NC(=O)CC(C)(C)C)c(C)c2c(c1-c1cccc(N(C)C)c1)OCC2c1ccc(C(C)C)cc1 (centres undefined)
Second: C[Si](C)(C)C#Cc1ccc(C#Cc2ccc(F)cc2)cc1
The melting point of the first is higher: 197 to 199 °C for the first, 144 to 146 °C for the second.

In the case of `O=C(CCC(F)([N+](=O)[O-])[N+](=O)[O-])NNC(=O)C(F)(F)C(F)(F)C(F)(F)F`, the melting point is reported as 143 to 144 °C.
